13 compounds from patent US4987144A, “1,3-bis(1,2,4-triazol-1-yl)2-(4-trifluoromethylphenyl)propan-2-ol useful for the prevention and/or treatment of deep-seated mycosis” (SS Pharmaceutical Co., Ltd., priority 1989, dated 1991) can be followed below.

Series [1] relates to Candida albicans. The series can be described thus: Antimycotic activities of similar compounds in a manner similar to Test 1, oral administration (Referential Test). The format is in vivo, Candida albicans (in male ICR mice). Particulars: in Mus musculus, 336 h, read-out: T/C; for response vs control in vivo at 40 mg: Dose (mg) 40, oral. Here is the method:
(§1) Male ICR mice of 4 weeks old were used as groups, each consisted of 5 mice. Each mouse was inoculated at caudal vein with 2.8×106^6 cells of Candida albicans. From one hour after the inoculation, each test compound was dissolved in 0.5 mλ of 0.06 N hydrochloric acid which had been added with "0.2% TO-10M" (trade name; product of Nikko Chemicals Co., Ltd.) and was orally administered once a day, four times in total. The mice were observed until the 14th day after the inoculation of the fungus. The average survival days of each group was compared with those of the control group to determine T/C (%). [formula]
In a manner similar to Test 1, antimycotic activities of each of the test compounds shown below in Table 2 were investigated. As will be readily envisaged from the results, practically no antimycotic activities were observed from the oral administration of those compounds.

The subject of series [2] is Candida albicans. In words: Antimycotic activities: survival of mice inoculated with Candida albicans, oral administration (Test 1). Type of series: in vivo, Candida albicans (in male ICR mice). To be noted: for T/C: once a day, four times, average survival days vs control, to 14th day after inoculation. As to the method: as §1
The nature of the next series: Acute toxicity, oral. Particulars: mouse, in vivo, mice, P.O.
Series [3] can be described thus: Measurement of body weight variations (Test 2). The format is in vivo, male ICR mice. Particulars: for body weight: 2.5 mg/Kg; for body weight change after administration (in words): group administered with the compound.

`OC(Cn1cncn1)(Cn1cncn1)c1cc(F)c(OCc2ccccc2)c(F)c1`: in the series on Candida albicans [1], the response vs control in vivo at 40 mg is 73%.

As to `OC(Cn1cncn1)(Cn1cncn1)c1ccc(F)cc1OCc1ccc(F)cc1`, the response vs control in vivo at 40 mg in the series on Candida albicans [1] was found to be 117%.

With `OC(Cn1cncn1)(Cn1cncn1)c1ccc(C(F)(F)F)cc1` [Triazole compound (I), 1,3-bis(1,2,4-triazol-l-yl)-2-(4-trifluoromethylphenyl)propan-2-ol], the T/C is 186% in the series with Candida albicans [2] (1.25 mg/kg), 385% in the series with Candida albicans [2] (2.5 mg/kg) and 450% with Candida albicans [2] (5 mg/kg). Besides, in the series with Candida albicans [2] (compared with fluconazole), the “apothanasia effects upon oral administration (in words)” value was “greater than fulconazole”. The LD50 in the series “Acute toxicity, oral” came to 1200 mg/kg. The body weight is 21.0 g in series [3] (0 days after administration); 20.6 g in series [3] (1 day after administration); 21.4 g in series [3] (2 days after administration); 22.2 g in series [3] (3 days after administration); 23.0 g in series [3] (4 days after administration); 23.3 g in series [3] (5 days after administration). Also, the body weight in series [3] (6 days after administration) is listed as 23.1 g. For the same compound, the “body weight change after administration (in words)” value in series [3] is “the body weight increased steadily”.

Turning to `OC(Cn1cncn1)(Cn1cncn1)c1ccc(F)cc1F` [Fluconazole], the figures for the T/C in the series on Candida albicans [2] (1.25 mg/kg), in the series with Candida albicans [2] (2.5 mg/kg) and in the series on Candida albicans [2] (5 mg/kg) were 143%, 379% and 443%, respectively. The “body weight change after administration (in words)” value in series [3] is given as “body weight reductions were observed”.

Turning to `OC(Cn1cncn1)(Cn1cncn1)c1ccc(-c2ccc(F)cc2)cc1`, the response vs control in vivo at 40 mg with Candida albicans [1] was determined as 136%.

On to `CC(=O)Nc1ccc(C(O)(Cn2cncn2)Cn2cncn2)c(F)c1`, for which, in the series with Candida albicans [1], the response vs control in vivo at 40 mg worked out at 82%.

Take `Oc1c(F)cc(C(O)(Cn2cncn2)Cn2cncn2)cc1F`: in the series with Candida albicans [1], the response vs control in vivo at 40 mg amounted to 82%.

For the compound `OC(Cn1cncn1)(Cn1cncn1)c1ccc(F)cc1OCc1ccccc1`, the response vs control in vivo at 40 mg in the series on Candida albicans [1] came to 122%.

For the compound `COc1c(F)cc(C(O)(Cn2cncn2)Cn2cncn2)cc1F`, in the series with Candida albicans [1], the response vs control in vivo at 40 mg came out at 91%.

Consider `OC(Cn1cncn1)(Cn1cncn1)c1cc(C(F)(F)F)cc(C(F)(F)F)c1`, for which the response vs control in vivo at 20 mg in the series on Candida albicans [1] (Dose (mg) 20, oral) turned out to be 118%.

As for `CCCOc1cc(F)ccc1C(O)(Cn1cncn1)Cn1cncn1`, the response vs control in vivo at 40 mg with Candida albicans [1] was 125%.

As to `Oc1cc(F)c(F)cc1C(O)(Cn1cncn1)Cn1cncn1`, the response vs control in vivo at 40 mg in the series with Candida albicans [1] is 125%.

In the case of `N#Cc1ccc(C(O)(Cn2cncn2)Cn2cncn2)c(F)c1`, the response vs control in vivo at 40 mg with Candida albicans [1] was determined as 81%.
